Data published in ChEMBL document CHEMBL3880421, “Indazole compounds and pharmaceutical compositions for inhibiting protein kinases, and methods for their use” (2003).

Key:
[1] = Antiproliferative activity against VEGF-stimulated HUVEC cells assessed as reduction in cell viability at 0.5 nM preincubated for 1 hr followed by addition of VEGF measured after 72 hrs by MTT assay; format: functional; conditions: Homo sapiens
[2] = Antiproliferative activity against VEGF-stimulated HUVEC cells assessed as reduction in cell viability at 2 nM preincubated for 1 hr followed by addition of VEGF measured after 72 hrs by MTT assay; format: functional; conditions: Homo sapiens

Row | Structure (SMILES) | inhibition at 0.0005 µM [1] [%] | inhibition at 0.002 µM [2] [%]
1 | O=C(Nc1nccs1)c1ccccc1Nc1ccc2c(/C=C/c3ccccn3)n[nH]c2c1 | 33 | 94
2 | CCCCN(CC)CCNC(=O)c1ccccc1Nc1ccc2c(/C=C/c3ccccn3)n[nH]c2c1 | 2 | 6
3 | CN(C)c1ccc(CNC(=O)c2ccccc2Nc2ccc3c(/C=C/c4ccccn4)n[nH]c3c2)cc1 | 32 | 24
4 | CC(=O)NNC(=O)c1ccccc1Nc1ccc2c(/C=C/c3ccccn3)n[nH]c2c1 | 4 | 10
5 | CC(C)(C)OC(=O)NCCNC(=O)c1ccccc1Nc1ccc2c(/C=C/c3ccccn3)n[nH]c2c1 | 78 | 60
6 | CC(C)CNC(=O)c1ccccc1Nc1ccc2c(/C=C/c3ccccn3)n[nH]c2c1 | 4 to 31 | 29 to 36
7 | O=C(NCc1cccc(F)c1)c1ccccc1Nc1ccc2c(/C=C/c3ccccn3)n[nH]c2c1 | 81 | 95
8 | O=C(Nc1nc[nH]n1)c1ccccc1Nc1ccc2c(/C=C/c3ccccn3)n[nH]c2c1 | 19 | 22
9 | O=C(NOCc1ccccc1)c1ccccc1Nc1ccc2c(/C=C/c3ccccn3)n[nH]c2c1 | 70 to 74 | 101 to 111
10 | O=C(NNCCO)c1ccccc1Nc1ccc2c(/C=C/c3ccccn3)n[nH]c2c1 | 33 | 18
11 | O=C(NCCCN1CCCC1)c1ccccc1Nc1ccc2c(/C=C/c3ccccn3)n[nH]c2c1 | 20 | 2
12 | CC(CN(C)C)NC(=O)c1ccccc1Nc1ccc2c(/C=C/c3ccccn3)n[nH]c2c1 (stereo not drawn) | 23 | 17
13 | CCOCCNC(=O)c1ccccc1Nc1ccc2c(/C=C/c3ccccn3)n[nH]c2c1 | 53 | 75
14 | CCN1CCCC1CNC(=O)c1ccccc1Nc1ccc2c(/C=C/c3ccccn3)n[nH]c2c1 (stereo not drawn) | 18 | 5
15 | O=C(NCCS(=O)(=O)O)c1ccccc1Nc1ccc2c(/C=C/c3ccccn3)n[nH]c2c1 | 16 | 21
16 | O=C(NC1CCC1)c1ccccc1Nc1ccc2c(/C=C/c3ccccn3)n[nH]c2c1 | 42 | 80
17 | CCC(COC)NC(=O)c1ccccc1Nc1ccc2c(/C=C/c3ccccn3)n[nH]c2c1 (stereo not drawn) | 1 | 65
18 | CNNC(=O)c1ccccc1Nc1ccc2c(/C=C/c3ccccn3)n[nH]c2c1 | 13 | 31
19 | Cc1ccc(CNC(=O)c2ccccc2Nc2ccc3c(/C=C/c4ccccn4)n[nH]c3c2)cc1 | 20 | 92
20 | O=C(Nn1cnnc1)c1ccccc1Nc1ccc2c(/C=C/c3ccccn3)n[nH]c2c1 | 17 | 13
21 | O=C(N[C@@H]1CCCC[C@@H]1O)c1ccccc1Nc1ccc2c(/C=C/c3ccccn3)n[nH]c2c1 | 26 | 59
22 | O=C(NNCC(F)(F)F)c1ccccc1Nc1ccc2c(/C=C/c3ccccn3)n[nH]c2c1 | 16 | 42
23 | Nc1nnc(NC(=O)c2ccccc2Nc2ccc3c(/C=C/c4ccccn4)n[nH]c3c2)[nH]1 | -6 | 41
24 | O=C(NCCCN1CCCC1=O)c1ccccc1Nc1ccc2c(/C=C/c3ccccn3)n[nH]c2c1 | 25 | 35
25 | CCN(CCNC(=O)c1ccccc1Nc1ccc2c(/C=C/c3ccccn3)n[nH]c2c1)c1cccc(C)c1 | 17 | 1

Row | Structure (SMILES) | inhibition at 0.0005 µM [1] [%] | inhibition at 0.002 µM [2] [%]
26 | O=C(NCCCN1CCCCCC1)c1ccccc1Nc1ccc2c(/C=C/c3ccccn3)n[nH]c2c1 | 25 | -5
27 | CC(CNC(=O)c1ccccc1Nc1ccc2c(/C=C/c3ccccn3)n[nH]c2c1)N(C)C (stereo not drawn) | -9 | 1
28 | O=C(NCC1CCC=CO1)c1ccccc1Nc1ccc2c(/C=C/c3ccccn3)n[nH]c2c1 (stereo not drawn) | 37 | 16
29 | CC(C)(C(=O)NNC(=O)c1ccccc1Nc1ccc2c(/C=C/c3ccccn3)n[nH]c2c1)n1cncn1 | 34 | 90
30 | O=C(NCCN1CCNCC1)c1ccccc1Nc1ccc2c(/C=C/c3ccccn3)n[nH]c2c1 | 37 | 12
31 | COC(=O)NNC(=O)c1ccccc1Nc1ccc2c(/C=C/c3ccccn3)n[nH]c2c1 | 8 | 21
32 | CNC(=O)CNC(=O)c1ccccc1Nc1ccc2c(/C=C/c3ccccn3)n[nH]c2c1 | -1 | 26
33 | O=C(NOc1ccccc1)c1ccccc1Nc1ccc2c(/C=C/c3ccccn3)n[nH]c2c1 | 27 | 80
34 | O=C(NCCCN(CCO)CCO)c1ccccc1Nc1ccc2c(/C=C/c3ccccn3)n[nH]c2c1 | 4 | 4
35 | O=C(NC(CO)CO)c1ccccc1Nc1ccc2c(/C=C/c3ccccn3)n[nH]c2c1 | 48 | 8
36 | O=C(NCC1CC1)c1ccccc1Nc1ccc2c(/C=C/c3ccccn3)n[nH]c2c1 | 25 to 35 | 53 to 69
37 | CC1(C)OCC(CNC(=O)c2ccccc2Nc2ccc3c(/C=C/c4ccccn4)n[nH]c3c2)O1 (stereo not drawn) | 28 | 69
38 | CCCCN(CCCC)CCCNC(=O)c1ccccc1Nc1ccc2c(/C=C/c3ccccn3)n[nH]c2c1 | 32 | 10
39 | CCOC(CNC(=O)c1ccccc1Nc1ccc2c(/C=C/c3ccccn3)n[nH]c2c1)OCC | 11 | 47
40 | O=C(NCCN(CCO)CCO)c1ccccc1Nc1ccc2c(/C=C/c3ccccn3)n[nH]c2c1 | 10 | 23
41 | CONC(=O)c1ccccc1Nc1ccc2c(/C=C/c3ccccn3)n[nH]c2c1 | 62 | 99
42 | O=C(NCP(=O)(O)O)c1ccccc1Nc1ccc2c(/C=C/c3ccccn3)n[nH]c2c1 | 32 | 6
43 | O=C(NCCc1ccccn1)c1ccccc1Nc1ccc2c(/C=C/c3ccccn3)n[nH]c2c1 | 49 | 91
44 | CC(C)(CO)CNC(=O)c1ccccc1Nc1ccc2c(/C=C/c3ccccn3)n[nH]c2c1 | 8 | 22
45 | CC1(C)CC(NC(=O)c2ccccc2Nc2ccc3c(/C=C/c4ccccn4)n[nH]c3c2)C(C)(C)N1O (stereo not drawn) | 15 | 8
46 | Cc1ccccc1CNC(=O)c1ccccc1Nc1ccc2c(/C=C/c3ccccn3)n[nH]c2c1 | 24 | 99
47 | O=C(NC1CCN(Cc2ccccc2)CC1)c1ccccc1Nc1ccc2c(/C=C/c3ccccn3)n[nH]c2c1 | 44 | 19
48 | CN(C)CC(C)(C)CNC(=O)c1ccccc1Nc1ccc2c(/C=C/c3ccccn3)n[nH]c2c1 | 38 | 5
49 | C[N+]12CC[C@@H]1C(NC(=O)c1ccccc1Nc1ccc3c(/C=C/c4ccccn4)n[nH]c3c1)C2 (stereo partly drawn) | 15 | -9
